Laboratory results reported in ChEMBL document CHEMBL1124323, “Phenolic metabolites of clomiphene: [(E,Z)-2-[4-(1,2-diphenyl-2-chlorovinyl)phenoxy]ethyl]diethylamine. Preparation, electrophilicity, and effects in MCF 7 breast cancer cells” (J Med Chem, 1989).

Columns and labels:
[1] = test system: MCF7S; assay: cells; conditions: Homo sapiens
[2] = target: T1, Anti-estrogen binding site (AEBS) (Homo sapiens, UniProt Q15125+Q9UBM7); assay: Displacement of [3H]tamoxifen from antiestrogen binding site (AEBS); type: protein-complex assay
T1 sequence (Q15125 whole entry): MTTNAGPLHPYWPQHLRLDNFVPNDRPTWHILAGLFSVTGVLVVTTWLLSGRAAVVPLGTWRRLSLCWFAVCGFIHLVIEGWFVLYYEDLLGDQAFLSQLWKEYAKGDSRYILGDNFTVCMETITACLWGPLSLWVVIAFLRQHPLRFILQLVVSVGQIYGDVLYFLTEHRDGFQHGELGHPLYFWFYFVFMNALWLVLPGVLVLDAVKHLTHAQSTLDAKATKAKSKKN
T1 sequence (Q9UBM7 whole entry): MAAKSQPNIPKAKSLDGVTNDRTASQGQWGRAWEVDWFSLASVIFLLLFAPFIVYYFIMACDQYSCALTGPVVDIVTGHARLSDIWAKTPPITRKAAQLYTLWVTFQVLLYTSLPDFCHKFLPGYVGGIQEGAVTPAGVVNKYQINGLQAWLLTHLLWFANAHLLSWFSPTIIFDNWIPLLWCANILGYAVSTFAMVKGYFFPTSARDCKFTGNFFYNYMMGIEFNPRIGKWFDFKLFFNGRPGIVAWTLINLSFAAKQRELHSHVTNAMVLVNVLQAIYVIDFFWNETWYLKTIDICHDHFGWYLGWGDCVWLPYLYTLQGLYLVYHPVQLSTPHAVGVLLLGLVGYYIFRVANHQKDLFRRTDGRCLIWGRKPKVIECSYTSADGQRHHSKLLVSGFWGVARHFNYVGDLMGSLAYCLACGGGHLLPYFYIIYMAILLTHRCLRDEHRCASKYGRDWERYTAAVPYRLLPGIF

[3] = target: T1, Anti-estrogen binding site (AEBS); assay: Relative binding affinity for antiestrogen binding site compared to tamoxifen; type: protein-complex assay
[4] = target: T2, Estrogen receptor (Homo sapiens, UniProt Q92731+P03372); assay: Relative binding affinity for estrogen receptor compared to estradiol; type: protein assay
[5] = target: T2, Estrogen receptor; assay: Displacement of [3H]-estradiol from estrogen receptor (ER); type: protein assay
[6] = test system: MCF7S; assay: Inhibition of MCF-7 cell proliferation at 5 uM; type: functional; conditions: Homo sapiens

Row | SMILES | inhibition at 5 µM [1] [%] | IC50 [2] [µM] | Ratio [3] | Ratio [4] | IC50 [5] [µM] | inhibition at 5 µM [6] [%]
1 | CCN(CC)CCOc1ccc(C(=C(Cl)c2ccccc2)c2ccccc2)cc1 [CLOMIPHENE] | 80 |  |  |  |  | 
2 | CCN(CC)CCOc1ccc(/C(=C(/Cl)c2ccc(O)cc2)c2ccccc2)cc1 | 57 |  |  |  |  | 
3 | CCN(CC)CCOc1ccc(/C(=C(/Cl)c2ccccc2)c2ccc(O)c(OC)c2)cc1 [3'-METHOXY-4'HYDROXYCLOMIPHENE] | 76 | 0.022 | 55 | 0.4 | 0.78 | 
4 | CCN(CC)CCOc1ccc(/C(=C(/Cl)c2ccc(O)c(OC)c2)c2ccccc2)cc1 |  | 0.032 | 38 |  | 3 | 49
